The text below walks through data of paper PMC9324074, “Novel Insights on Human Carbonic Anhydrase Inhibitors Based on Coumalic Acid: Design, Synthesis, Molecular Modeling Investigation, and Biological Studies” (International Journal of Molecular Sciences, 2022).

Holding throughout (assay): stopped-flow CO2 hydrase assay
What all share (assay type): biochemical

The target of one test is T1, hCA IX (Homo sapiens, UniProt Q16790).
T1 construct: gene CA9; recombinant, obtained in house
From the text: stopped-flow CO2 hydrase assay on hCA IX

Another test deals with T2, hCA I (Homo sapiens, UniProt P00915).
T2 construct: gene CA1; recombinant, obtained in house
T2 sequence (P00915 2-261): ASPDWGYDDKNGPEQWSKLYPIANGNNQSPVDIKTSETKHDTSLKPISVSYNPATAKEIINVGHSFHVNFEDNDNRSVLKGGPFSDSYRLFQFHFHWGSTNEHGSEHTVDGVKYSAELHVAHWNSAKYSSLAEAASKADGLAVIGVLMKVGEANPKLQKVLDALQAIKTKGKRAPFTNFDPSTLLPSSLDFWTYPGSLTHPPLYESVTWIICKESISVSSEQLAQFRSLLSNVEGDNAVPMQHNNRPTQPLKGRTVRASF
The source says: stopped-flow CO2 hydrase assay on hCA I

For another test, the target named is T3, hCA XII (Homo sapiens, UniProt O43570).
T3 construct: gene CA12; recombinant, obtained in house
T3 sequence (O43570 30-289 limits assumed): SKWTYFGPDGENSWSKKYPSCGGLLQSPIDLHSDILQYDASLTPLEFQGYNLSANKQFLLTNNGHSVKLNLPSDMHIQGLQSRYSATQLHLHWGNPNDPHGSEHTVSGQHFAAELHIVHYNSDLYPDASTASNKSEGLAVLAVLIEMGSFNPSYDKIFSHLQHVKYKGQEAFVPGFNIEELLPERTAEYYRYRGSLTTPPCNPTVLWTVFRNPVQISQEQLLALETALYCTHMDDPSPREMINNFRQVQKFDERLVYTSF
From the text: stopped-flow CO2 hydrase assay on hCA XII

The target of a further test is T4, hCA II (Homo sapiens, UniProt P00918).
T4 construct: gene CA2; recombinant, obtained in house
The conditions noted are these: read-out: KI (μM) ^a / hCA I. The source says: stopped-flow CO2 hydrase assay on hCA II

The mark [1] stands for this setting: pH […] ([…] Hepes), […] Na2SO4, […] min preincubation at room temperature.

Where two headings read alike, the source gives them in different places.

“N-(3-Morpholinopropyl)-2-oxo-2H-pyran-5-carboxamide [compound 15]”: the Ki on hCA IX (setting [1]) is 0.326 µM; at hCA I (setting [1]), greater than 100 µM; on hCA XII (setting [1]), 0.087 µM; at hCA II (setting [1]), greater than 100 µM.
For the compound `COc1ccc(NC(=O)c2ccc(=O)oc2)cc1` [compound 6, N-(4-Methoxyphenyl)-2-oxo-2H-pyran-5-carboxamide], the Ki is 3.1 µM at hCA IX, greater than 100 µM at hCA I, 0.7 µM on hCA XII and greater than 100 µM at hCA II.
In the case of `O=C(Nc1ccc(Br)cc1)c1ccc(=O)oc1` [compound 9, N-(4-Bromophenyl)-2-oxo-2H-pyran-5-carboxamide], the Ki on hCA IX was 0.082 µM; on hCA I, greater than 100 µM; at hCA XII it was 0.089 µM; on hCA II, greater than 100 µM.
For the compound `O=C(NC1CCCCC1)c1ccc(=O)oc1` [compound 14, N-Cyclohexyl-2-oxo-2H-pyran-5-carboxamide], the Ki is 0.098 µM at hCA IX, greater than 100 µM on hCA I, 0.086 µM at hCA XII and greater than 100 µM at hCA II.
With `Cc1cccc(NC(=O)c2ccc(=O)oc2)c1` [compound 4, 2-Oxo-N-(m-tolyl)-2H-pyran-5-carboxamide], the Ki on hCA IX is 0.174 µM; at hCA I, greater than 100 µM; at hCA XII it was 0.09 µM; on hCA II, greater than 100 µM.
Take `CC(C)c1ccc(NC(=O)c2ccc(=O)oc2)cc1` [compound 5, N-(4-Isopropylphenyl)-2-oxo-2H-pyran-5-carboxamide]: the Ki was 0.273 µM on hCA IX, greater than 100 µM on hCA I, 0.068 µM on hCA XII and greater than 100 µM on hCA II.
In the case of `O=C(Nc1ccccc1Cc1ccccc1)c1ccc(=O)oc1` [compound 12, N-(2-Benzylphenyl)-2-oxo-2H-pyran-5-carboxamide], the Ki on hCA IX is 0.146 µM; on hCA I it was greater than 100 µM; at hCA XII it was 0.08 µM; on hCA II it was greater than 100 µM.
Take `Cc1ccc(NC(=O)c2ccc(=O)oc2)cc1` [compound 3, 2-Oxo-N-(p-tolyl)-2H-pyran-5-carboxamide]: the Ki at hCA IX was 2.9 µM; on hCA I, greater than 100 µM; on hCA XII it was 0.8 µM; on hCA II it was greater than 100 µM.
Take `O=C(Nc1ccccc1I)c1ccc(=O)oc1` [compound 10, N-(2-Iodophenyl)-2-oxo-2H-pyran-5-carboxamide]: the Ki was 0.281 µM at hCA IX, greater than 100 µM on hCA I, 0.081 µM at hCA XII and greater than 100 µM on hCA II.
Take `O=C(O)c1ccc(=O)oc1` [compound 1, coumalic acid]: the Ki was 0.073 µM on hCA IX, greater than 100 µM at hCA I, 0.083 µM on hCA XII and greater than 100 µM at hCA II.
For `O=C(Nc1ccc(-c2ccccc2)cc1)c1ccc(=O)oc1` [compound 11, N-([1,1′-Biphenyl]-4-yl)-2-oxo-2H-pyran-5-carboxamide], the Ki is 0.083 µM at hCA IX, greater than 100 µM on hCA I, 0.076 µM on hCA XII and greater than 100 µM at hCA II.
Consider `COc1cccc(NC(=O)c2ccc(=O)oc2)c1` [compound 7, N-(3-Methoxyphenyl)-2-oxo-2H-pyran-5-carboxamide], for which the Ki is 0.315 µM at hCA IX, greater than 100 µM on hCA I, 0.265 µM at hCA XII and greater than 100 µM on hCA II.
`O=C(Nc1ccc(Cl)cc1)c1ccc(=O)oc1` [compound 8, N-(4-Chlorophenyl)-2-oxo-2H-pyran-5-carboxamide]: the Ki on hCA IX was 3.2 µM; on hCA I, greater than 100 µM; at hCA XII, 0.7 µM; at hCA II, greater than 100 µM.
For the compound `O=C(Nc1ccccc1)c1ccc(=O)oc1` [compound 2, 2-Oxo-N-phenyl-2H-pyran-5-carboxamide], the Ki is 3 µM on hCA IX, greater than 100 µM at hCA I, 0.7 µM at hCA XII and greater than 100 µM at hCA II.
In the case of `O=C(Nc1cccc2ccccc12)c1ccc(=O)oc1` [compound 13, N-(Naphthalen-1-yl)-2-oxo-2H-pyran-5-carboxamide], the Ki was 3.69 µM on hCA IX, greater than 100 µM on hCA I, 0.094 µM on hCA XII and greater than 100 µM at hCA II.
